Source: ChEMBL document CHEMBL1201862, “PubChem BioAssay data set” (2004)
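Tested at 5 concentrations; 48 h exposure; 96-well plates; endpoints linearly interpolated, else capped at highest concentration. Here, GI50 denotes the concentration required for 50% inhibition of growth.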 The source made the active and inactive calls. Cut-off read from the data, not from the text of the source: active = GI50 up to about 1.1 µM and inactive = higher.

Legend:
Test in all cases: inhibition of tumour cell growth, NCI panel, 48 h
HCC 2998 = test system: HCC 2998
K562 = test system: K562
HCT-15 = test system: HCT-15
OVCAR-3 = test system: OVCAR-3
COLO 205 = test system: COLO 205
TK-10 = test system: TK-10
HCT-116 = test system: HCT-116
HL-60 = test system: HL-60
UACC-62 = test system: UACC-62
SNB-75 = test system: SNB-75
PC-3 = test system: PC-3
DU-145 = test system: DU-145
SK-MEL-2 = test system: SK-MEL-2
T47D = test system: T47D
SK-OV-3 = test system: SK-OV-3
SF-539 = test system: SF-539
NCI-H226 = test system: NCI-H226
EKVX = test system: EKVX
HOP-62 = test system: HOP-62
RPMI-8226 = test system: RPMI-8226
SN12C = test system: SN12C
NCI-H23 = test system: NCI-H23
MDA-MB-231 = test system: MDA-MB-231
BT-549 = test system: BT-549
IGROV-1 = test system: IGROV-1
OVCAR-4 = test system: OVCAR-4
A498 = test system: A498
SR = test system: SR
MDA-N = test system: MDA-N
Malme-3M = test system: Malme-3M
RXF 393 = test system: RXF 393
NCI/ADR-RES = test system: NCI/ADR-RES
CCRF-CEM = test system: CCRF-CEM
CAKI-1 = test system: CAKI-1
786-0 = test system: 786-0
LOX IMVI = test system: LOX IMVI
OVCAR-8 = test system: OVCAR-8
Hs-578T = test system: Hs-578T
NCI-H522 = test system: NCI-H522
U-251 = test system: U-251
SK-MEL-5 = test system: SK-MEL-5
ACHN = test system: ACHN
MDA-MB-435 = test system: MDA-MB-435
MOLT-4 = test system: MOLT-4
UO-31 = test system: UO-31
OVCAR-5 = test system: OVCAR-5
MCF7 = test system: MCF7
M14 = test system: M14
UACC-257 = test system: UACC-257
SW-620 = test system: SW-620
SF-268 = test system: SF-268
NCI-H460 = test system: NCI-H460
KM12 = test system: KM12
SNB-19 = test system: SNB-19
HOP-92 = test system: HOP-92
A549 = test system: A549
HT-29 = test system: HT-29
SK-MEL-28 = test system: SK-MEL-28
SF-295 = test system: SF-295

In the case of `O=[N+]([O-])c1ccc(CSc2c3ccccc3nc3ccccc23)cc1`, the GI50 (HCC 2998) was 16.1 µM (inactive), the GI50 (K562) was 5.01 µM (inactive) and the GI50 (HCT-15) was 3.91 µM. For the same compound, the GI50 (OVCAR-3) was 4.53 µM (inactive), the GI50 (COLO 205) was 3.13 µM (inactive) and the GI50 (TK-10) was 6.62 µM (inactive). The GI50 (HCT-116) was 2.78 µM (inactive), the GI50 (HL-60) was 2.52 µM (inactive) and the GI50 (UACC-62) was 14.4 µM (inactive). The GI50 (SNB-75) was 19 µM (inactive), the GI50 (PC-3) was 7.43 µM (inactive) and the GI50 (DU-145) was 2.3 µM (inactive). The GI50 (SK-MEL-2) was 16.9 µM (inactive), the GI50 (T47D) was 1.85 µM (inactive) and the GI50 (SK-OV-3) was 22 µM (inactive). For the same compound, the GI50 (SF-539) was 2.47 µM (inactive), the GI50 (NCI-H226) was 16.7 µM (inactive) and the GI50 (EKVX) was 15.9 µM (inactive). The GI50 (HOP-62) was 18.3 µM (inactive), the GI50 (RPMI-8226) was 2.85 µM (inactive) and the GI50 (SN12C) was 3.52 µM (inactive). The GI50 (NCI-H23) was 7.05 µM (inactive), the GI50 (MDA-MB-231) was 13.5 µM (inactive) and the GI50 (BT-549) was 18.8 µM (inactive). The GI50 (IGROV-1) was 2.82 µM (inactive), the GI50 (OVCAR-4) was 15.6 µM (inactive) and the GI50 (A498) was 23.7 µM (inactive). The GI50 (SR) was 3.13 µM (inactive), the GI50 (MDA-N) was 9.86 µM (inactive) and the GI50 (Malme-3M) was 2.34 µM (inactive). The GI50 (RXF 393) was 5.47 µM (inactive), the GI50 (NCI/ADR-RES) was 18 µM (inactive) and the GI50 (CCRF-CEM) was 2.69 µM (inactive). For the same compound, the GI50 (CAKI-1) was 15.4 µM (inactive), the GI50 (786-0) was 1.93 µM (inactive) and the GI50 (LOX IMVI) was 2.93 µM (inactive). The GI50 (OVCAR-8) was 3.33 µM (inactive), the GI50 (Hs-578T) was 3.21 µM (inactive) and the GI50 (NCI-H522) was 1.9 µM (inactive). The GI50 (U-251) was 7.28 µM (inactive), the GI50 (SK-MEL-5) was 16.7 µM (inactive) and the GI50 (ACHN) was 3.37 µM (inactive). For the same compound, the GI50 (MDA-MB-435) was 4.94 µM (inactive), the GI50 (MOLT-4) was 2.31 µM (inactive) and the GI50 (UO-31) was 5.62 µM (inactive). The GI50 (OVCAR-5) was 15.3 µM (inactive), the GI50 (MCF7) was 2.51 µM (inactive) and the GI50 (M14) was 4.56 µM (inactive). The GI50 (UACC-257) was 3.33 µM (inactive), the GI50 (SW-620) was 2.88 µM (inactive) and the GI50 (SF-268) was 7.64 µM (inactive). The GI50 (NCI-H460) was 20.6 µM (inactive), the GI50 (KM12) was 4.62 µM (inactive) and the GI50 (SNB-19) was 15.8 µM (inactive). For the same compound, the GI50 (HOP-92) was 3.75 µM (inactive), the GI50 (A549) was 23.9 µM (inactive) and the GI50 (HT-29) was 2.28 µM (inactive). The GI50 (SK-MEL-28) was 4.67 µM (inactive) and the GI50 (SF-295) was 21.1 µM (inactive).
In the case of `C=C(Cl)c1c(OC)cccc1OCc1ccccc1`, the GI50 (HCC 2998) was 37.4 µM (inactive), the GI50 (K562) was 48.2 µM (inactive) and the GI50 (HCT-15) was 92.7 µM. The GI50 (OVCAR-3) was > 100 µM (inactive), the GI50 (COLO 205) was 98.2 µM (inactive) and the GI50 (TK-10) was > 100 µM (inactive). For the same compound, the GI50 (HCT-116) was 56.8 µM (inactive), the GI50 (HL-60) was 29.2 µM (inactive) and the GI50 (UACC-62) was 30.4 µM (inactive). For the same compound, the GI50 (SNB-75) was 23.5 µM (inactive), the GI50 (PC-3) was > 100 µM (inactive) and the GI50 (DU-145) was > 100 µM (inactive). The GI50 (SK-MEL-2) was > 100 µM (inactive), the GI50 (T47D) was 25.1 µM (inactive) and the GI50 (SK-OV-3) was > 100 µM (inactive). The GI50 (SF-539) was > 100 µM (inactive), the GI50 (NCI-H226) was 48.2 µM (inactive) and the GI50 (EKVX) was 59.4 µM (inactive). The GI50 (HOP-62) was > 100 µM (inactive), the GI50 (RPMI-8226) was 43 µM (inactive) and the GI50 (SN12C) was > 100 µM (inactive). The GI50 (NCI-H23) was 26.1 µM (inactive), the GI50 (MDA-MB-231) was 64.7 µM (inactive) and the GI50 (BT-549) was > 100 µM (inactive). For the same compound, the GI50 (IGROV-1) was 57.5 µM (inactive), the GI50 (OVCAR-4) was 98.9 µM (inactive) and the GI50 (A498) was 62.4 µM (inactive). For the same compound, the GI50 (SR) was 26.8 µM (inactive), the GI50 (MDA-N) was 42 µM (inactive) and the GI50 (Malme-3M) was > 100 µM (inactive). For the same compound, the GI50 (RXF 393) was 16.7 µM (inactive), the GI50 (NCI/ADR-RES) was > 100 µM (inactive) and the GI50 (CCRF-CEM) was 75 µM (inactive). For the same compound, the GI50 (CAKI-1) was > 100 µM (inactive), the GI50 (786-0) was > 100 µM (inactive) and the GI50 (LOX IMVI) was 69.7 µM (inactive). For the same compound, the GI50 (OVCAR-8) was > 100 µM (inactive), the GI50 (Hs-578T) was > 100 µM (inactive) and the GI50 (NCI-H522) was 44.6 µM (inactive). The GI50 (U-251) was > 100 µM (inactive), the GI50 (SK-MEL-5) was 34.4 µM (inactive) and the GI50 (ACHN) was 90.8 µM (inactive). The GI50 (MDA-MB-435) was 37 µM (inactive), the GI50 (MOLT-4) was 64.7 µM (inactive) and the GI50 (UO-31) was 55 µM (inactive). For the same compound, the GI50 (OVCAR-5) was > 100 µM (inactive), the GI50 (MCF7) was 58.5 µM (inactive) and the GI50 (M14) was > 100 µM (inactive). For the same compound, the GI50 (UACC-257) was 20 µM (inactive), the GI50 (SW-620) was 71 µM (inactive) and the GI50 (SF-268) was > 100 µM (inactive). The GI50 (NCI-H460) was > 100 µM (inactive), the GI50 (KM12) was 54.2 µM (inactive) and the GI50 (SNB-19) was > 100 µM (inactive). For the same compound, the GI50 (HOP-92) was 22.2 µM (inactive), the GI50 (A549) was > 100 µM (inactive) and the GI50 (HT-29) was 34.5 µM (inactive). The GI50 (SK-MEL-28) was > 100 µM (inactive) and the GI50 (SF-295) was > 100 µM (inactive).
